Measured values: patent US12180197B2, “GLP-1R modulating compounds” (Gilead Sciences, Inc., priority 2021, dated 2024)

Biological target: GLP-1R (Homo sapiens, UniProt P43220)
Experiment: GLP-1R Activation - cAMP Assay 2
Assay type: cell-based
Settings: cAMP increase in CHO cells stably expressing GLP-1R; pre-spotted agonists; assay buffer or 100% Human Plasma (not given); 30 minutes
Description: GLP-1R Activation—cAMP Assay 2
GLP-1R activation by small molecule agonists is quantified by measuring cAMP increase in CHO cells stably expressing GLP-1R (MultiSpan product #C1267-1a). 50 nL of agonists are pre-spotted in a 10 point dose response onto 384-well plate (Corning product #CL3826) using the Labcyte Echo System. The cells are harvested and plated in assay buffer (HBSS (Corning product #21-023-CV) with 20 mM Hepes (Gibco product #15630-080) and 0.1% BSA (Rockland Immunochemicals product #BSA-1000)) or 100% Human Plasma (Innovative Research product #50-643-396) at 1,000 cells/well, 10 μL/well, onto the pre-spotted plates. The cells are then incubated for 30 minutes at 37° C., 5% CO2. cAMP concentration increase is then detected using Cisbio's cAMP Gs Dynamic Kit (product #62AM4PEC) according to the manufacturer's protocol. The response is plotted against the log of the agonist concentration and fitted to a sigmoidal equation to determine the EC50.

GLP-1R, sequence (P43220 24-463): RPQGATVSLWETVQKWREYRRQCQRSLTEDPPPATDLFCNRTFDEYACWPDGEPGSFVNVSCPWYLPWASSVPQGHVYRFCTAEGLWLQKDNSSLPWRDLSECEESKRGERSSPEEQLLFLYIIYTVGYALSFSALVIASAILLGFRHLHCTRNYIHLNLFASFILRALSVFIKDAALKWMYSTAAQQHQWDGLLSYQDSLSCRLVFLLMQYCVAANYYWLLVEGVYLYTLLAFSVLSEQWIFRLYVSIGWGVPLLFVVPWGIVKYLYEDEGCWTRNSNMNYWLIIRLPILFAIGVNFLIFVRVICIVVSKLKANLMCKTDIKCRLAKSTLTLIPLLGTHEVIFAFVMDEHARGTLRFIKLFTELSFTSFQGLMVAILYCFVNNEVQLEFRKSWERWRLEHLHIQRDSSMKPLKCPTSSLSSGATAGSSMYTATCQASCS

EC50: 1.9 nM
Compound: O=C(O)c1ccc2nc(CN3CCC(c4cccc(OCc5ccc(-c6cnc(C7CC7)o6)cc5F)n4)CC3)n(C[C@@H]3CCO3)c2c1 [Example 20, (S)-2-((4-(6-((4-(2-cyclopropyloxazol-5-yl)-2-fluorobenzyl)oxy)pyridin-2-yl)piperidin-1-yl)methyl)-1-(oxetan-2-ylmethyl)-1H-benzo[d]imidazole-6-carboxylic acid]
